Test results as given in patent publication US6861554B2, “Creatine salt having enhanced nutritional and therapeutic efficacy and compositions containing same” (Biosalts s.r.l., priority 2001, dated 2005).

Assays:
[1] = test system: muscle cells; assay: increase in glucose uptake by the muscle cells with respect to insulin; format: cell-based
[2] = stability and hygroscopicity of the salt; format: physicochemical

Row | Compound | Glucose uptake (percentage of increase in the glucose uptake by the muscle cells with respect to insulin) ([1]; 2.5 grams of substance) | hygroscopicity [2] | stability [2] | Glucose uptake (percentage of increase in the glucose uptake by the muscle cells with respect to insulin) ([1]; 5.0 grams of substance)
1 | CN(CC(=O)O)C(=N)N.O [Creatine monohydrate, creatine monohydrate] | 1-2% |  |  | 
2 | NCCS(=O)(=O)O [Taurine, 2-aminoethanesulphonic acid] | 15-18% |  |  | 
3 | Creatine Taurinate |  | non hygroscopic | stable | 25-28%
